Laboratory results published in patent US10759994B2, “Luminogenic transition metal-based pyridyl complex and its use” (City University of Hong Kong, priority 2016, dated 2020).

Columns and labels:
BCN-BSA = target: T1, BCN-BSA (Bos taurus, UniProt P02769); experiment: Emission enhancement upon reaction with BCN-BSA; type: biochemical, Bovine; conditions: complex 10 μM, protein 3.78 μM, aerated potassium phosphate buffer (50 mM, pH 7.4)/DMSO (99:1, v/v), 298 K
T1 construct: purchased Calbiochem

[1] = SPANC reaction kinetics with BCN—OH by UV/Vis absorption spectroscopy; type: physicochemical; conditions: for Second-order rate constants (k2): reaction with BCN—OH in MeOH at 298 K
Experimental: The reactivity of the iridium(III) and ruthenium(II) pyridyl complexes toward a strained alkyne derivative BCN—OH in MeOH at 298 K was studied. The second-order rate constants (k2) of the strain-promoted alkyne-nitrone cycloaddition (SPANC) reaction of complexes 1a-5b are shown in Tables 3 and 4, respectively. The k2 values of the iridium(III) complexes 1a, 2a and 3a and the ruthenium(II) complexes 1b, 2b, 3b, 4b, and 5b were determined to be 0.116-0.238 and 0.078-3.06 M^−1 s^−1, respectively, which are about 1.95-76.5 times that of the free ligand bpy-nitrone-Me (k2=0.040 M^−1 s^−1). This is attributed to the electron-withdrawing effects of the positively-charged metal centers. […] The accelerated reaction kinetics is assumed to originate from the presence of the more electron-withdrawing phenyl ring at the N-position of the nitrone moiety. Thus, the accelerated reaction kinetics render complexes 1a-5b highly advantageous bioorthogonal probes for biomolecules modified with a strained alkyne moiety.
More specifically, the SPANC reaction kinetics of complexes 1a 5b was studied by UV/Ms absorption spectroscopy. For the ligand bpy-nitrone-Me and the iridium(III) complexes 1a-3a, the k2 values were measured under pseudo first order conditions with a 25- to 100-fold excess of BCN—OH in MeOH at 298 K. The reaction process was followed by monitoring the exponential decay of the absorbance at 306-342 nm upon addition of BCN—OH. The final concentrations of the nitrone compounds were 10 μM and those of BCN—OH ranged from 0.25 to 1.0 mM. For the ruthenium(II) complexes 1b-5b, the k2 values were determined under pseudo first order conditions with a 50- to 200-fold excess of BCN—OH in MeOH at 298 K. The reaction process was monitored by following the exponential decay of the absorbance at 329 nm. The final concentrations of the complexes were 10 μM and those of BCN—OH ranged from 0.5 to 2.0 mM. The data were fitted to a single-exponential equation to give the observed rate constants (kobs), which were plotted against the concentrations of BCN—OH to obtain the k2 from the slope of the plots.

HeLa cells [2] = experiment: LSCM imaging of bioorthogonal labeling of BCN-C10 in HeLa cells; type: cell-based; conditions: for Subcellular structure stained / Staining pattern over time: BCN-C10-pretreated HeLa cells; for Staining pattern over time / Intracellular emission with BCN-C10 pretreatment: complex 40 μM; for Intracellular emission with BCN-C10 pretreatment: HeLa cells, BCN-C10 200 μM 1 h, λex=488 nm
Text: (“1 b”, “2b”, “3b”, “4b”, and “5b” indicate the complexes of the present invention; “—BCN-C10” means BCN-C10-untreated HeLa cells; “+BCN-C10” means BCN-C10-pretreated HeLa cells).
(“2b” and “5b” indicate the complexes of the present invention; “—BCN-C10” means BCN-C10-untreated HeLa cells; “+BCN-C10” means BCN-C10-pretreated HeLa cells).
The bioorthogonal labeling properties of complexes 1a-5b were investigated using CHO-K1 or HeLa cells with or without pretreatment of an exogenous molecule BCN-010, i.e., a BCN-modified decane molecule. The intracellular distribution of BCN-C10 was then imaged using laser scanning confocal microscopy (LSCM).
In the study of the ruthenium(II) nitrone complexes, live HeLa cells were treated with BCN-C10 (200 μM) for 1 h, thoroughly washed with PBS, then incubated with complexes 1b-5b (40 μM) for 12 h, and finally imaged by LSCM. More specifically, HeLa cells were incubated in growth medium/DMSO (99:1, v/v) containing BCN-C10 (200 μM) in the dark at 37° C. under a 5% CO2 atmosphere for 1 h. After treatment, the medium was removed, the cells were washed thoroughly with PBS (1 mL×3), and then incubated in growth medium/DMSO (99:1, v/v) containing the ruthenium(II) complex (40 μM) in the dark at 37° C. under a 5% CO2 atmosphere. After incubation for 3, 6, 12, or 24 h, the culture medium was removed and the cell was were washed with PBS (1 mL×3). The coverslip was mounted onto a sterilized glass slide and then imaging was performed using a Leica TCS SPE confocal microscope with an oil immersion 63× objective len and an excitation wavelength at 488 nm. […] Additionally, BCN-C10-pretreated cells were incubated with complexes 2b and 5b for different time periods (3, 6, 12, and 24 h) (FIG. 6). […] The regioselective staining is assumed to be closely related to the subcellular distribution of BCN-C10, and the lipophilicity and reactivity of the complexes.

unmodified BSA = target: T2, unmodified BSA (Bos taurus, UniProt P02769); experiment: Emission enhancement with unmodified BSA (negative control); type: biochemical, Bovine; conditions: complex 10 μM, protein 3.78 μM, aerated potassium phosphate buffer (50 mM, pH 7.4)/DMSO (99:1, v/v), 298 K
T2 construct: purchased Calbiochem

HeLa cells [3] = experiment: Cellular uptake by ICP-MS in HeLa cells; type: cell-based; conditions: complex 40 μM, 12 h; for Uptake by BCN-C10-pretreated cells relative to untreated cells: HeLa cells, BCN-C10 pretreatment; for Amount of ruthenium associated with an average HeLa cell: 37° C., ICP-MS, untreated cells
Experimental: The cellular uptake of complexes 1a-5b was examined by ICP-MS. […] This finding should originate from intracellular esterases that convert the ester moieties of complex 3a into negatively charged carboxyl groups, enhancing its intracellular retention. […] Upon incubation of the untreated cells with the complexes, the amounts of ruthenium taken up by an average cell followed the order: 1 b<3b<5b<2b<4b, which seems to be in accordance with their lipophilic character. […] These findings indicate that the accumulation of the complexes 1 b-5b in BCN-C10-pretreated cells is not only associated with their lipophilicity, but also strongly affected by the bioorthogonal labeling of BCN-C10.
More specifically, for determining the cellular uptake of complexes 1a-3a, CHO-K1 cells were incubated in growth medium/DMSO (99:1, v/v) containing the iridium(III) complex (5 μM) in the dark at 37° C. under a 5% CO2 atmosphere for 1 h. The medium was removed, and the cell layer was thoroughly washed with PBS (1 mL×3). The cells were trypsinized by trypsin-EDTA (500 μL) and harvested with PBS. The resultant solution (2 mL) was heated with 65% HNO3 (2 mL) at 70° C. for 2 h, cooled to room temperature, and analyzed using an Elan 6100 DCR-ICP-MS (PerkinElmer SCIEX Instruments). For determining the cellular uptake of complexes 1 b 5b, HeLa cells with or without pretreatment of BCN-C10 were incubated in growth medium/DMSO (99:1, v/v) containing the ruthenium(II) complexes (40 μM) in the dark at 37° C. under a 5% CO2 atmosphere. After incubation for 12 h, the medium was removed and the cells were thoroughly washed with PBS (1 mL×3). The cells were typsinized by trypsin-EDTA (500 μL) and harvested with PBS. The resultant solution (1.5 mL) was heated with 65% HNO3 (1 mL) at 60° C. for 2 h, cooled to room temperature, and analyzed using an Elan 6100 DCR-ICP-MS.

T2 sequence (P02769 25-607): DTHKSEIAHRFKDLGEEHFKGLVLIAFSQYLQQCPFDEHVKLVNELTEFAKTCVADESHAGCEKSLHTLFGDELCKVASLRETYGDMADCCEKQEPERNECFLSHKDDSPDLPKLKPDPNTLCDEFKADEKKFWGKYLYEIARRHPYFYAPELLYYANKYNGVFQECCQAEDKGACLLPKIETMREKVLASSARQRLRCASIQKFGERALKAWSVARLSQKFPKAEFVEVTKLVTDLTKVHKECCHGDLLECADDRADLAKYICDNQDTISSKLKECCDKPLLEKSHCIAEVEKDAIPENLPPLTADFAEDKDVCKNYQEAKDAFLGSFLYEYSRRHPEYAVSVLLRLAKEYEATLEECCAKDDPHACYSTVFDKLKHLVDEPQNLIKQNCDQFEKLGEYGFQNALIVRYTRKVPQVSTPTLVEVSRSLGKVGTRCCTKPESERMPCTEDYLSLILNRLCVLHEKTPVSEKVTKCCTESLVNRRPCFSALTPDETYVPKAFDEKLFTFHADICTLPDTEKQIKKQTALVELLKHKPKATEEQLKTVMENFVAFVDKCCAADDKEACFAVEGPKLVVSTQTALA
T1 sequence (P02769 25-607): as above

Structure (SMILES): Cc1ccnc(-c2cc(/C=[N+](\[O-])c3ccccc3)ccn2)c1.F[P-](F)(F)(F)(F)F.F[P-](F)(F)(F)(F)F.[Ru+2].c1ccc(-c2ccccn2)nc1.c1ccc(-c2ccccn2)nc1 [Complex 5b]
- I/Io BCN-BSA (BCN-BSA): 9.6
- k2 relative to those of the N-methyl nitrone complexes 1b, 2b, 3b and 4b ([1]; BCN—OH in MeOH at 298 K): at least 36 fold
- Subcellular structure stained (HeLa cells [2]): cell membrane staining
- Staining pattern over time (HeLa cells [2]; 6 h): selectively lighted up the cell surface
- Staining pattern over time (HeLa cells [2]; 12 h): intense cell membrane staining plus some sharp vesicles in the cytoplasmic regions adjacent to cell membrane
- Staining pattern over time (HeLa cells [2]; 24 h): intense granular staining in the cytoplasm
- Intracellular emission with BCN-C10 pretreatment (HeLa cells [2]; 12 h): intense subcellular staining
- I/Io BSA (unmodified BSA): 1.1
- Uptake by BCN-C10-pretreated cells relative to untreated cells (HeLa cells [3]): 2.48 fold
- Amount of ruthenium associated with an average HeLa cell (HeLa cells [3]): 1.09 ± 0.03 fmol

Structure (SMILES): CCCCNC(=O)c1ccnc(-c2cc(C(=O)NCCCC)ccn2)c1.CCCCNC(=O)c1ccnc(-c2cc(C(=O)NCCCC)ccn2)c1.Cc1ccnc(-c2cc(/C=[N+](/C)[O-])ccn2)c1.F[P-](F)(F)(F)(F)F.F[P-](F)(F)(F)(F)F.[Ru+2] [Complex 2b]
- I/Io BCN-BSA (BCN-BSA): 16.9
- Second-order rate constants (k2) [1]: 0.086 ± 0.005 M⁻¹ s⁻¹
- Subcellular structure stained (HeLa cells [2]): cell membrane staining
- Staining pattern over time (HeLa cells [2]; 6 h): selectively lighted up the cell surface
- Staining pattern over time (HeLa cells [2]; 12 h): intense cell membrane staining plus some sharp vesicles in the cytoplasmic regions adjacent to cell membrane
- Staining pattern over time (HeLa cells [2]; 24 h): intense granular staining in the cytoplasm
- Intracellular emission with BCN-C10 pretreatment (HeLa cells [2]; 12 h): intense subcellular staining
- I/Io BSA (unmodified BSA): 1.1
- Uptake by BCN-C10-pretreated cells relative to untreated cells (HeLa cells [3]): 8.89 fold
- Amount of ruthenium associated with an average HeLa cell (HeLa cells [3]): 1.32 ± 0.08 fmol

Structure (SMILES): Cc1ccnc(-c2cc(/C=[N+](/C)[O-])ccn2)c1.F[P-](F)(F)(F)(F)F.F[P-](F)(F)(F)(F)F.[Ru+2].c1ccc(-c2ccccn2)nc1.c1ccc(-c2ccccn2)nc1 [Complex 1b]
- I/Io BCN-BSA (BCN-BSA): 10.7
- Second-order rate constants (k2) [1]: 0.084 ± 0.005 M⁻¹ s⁻¹
- Subcellular structure stained (HeLa cells [2]): punctate cell surface staining
- Intracellular emission with BCN-C10 pretreatment (HeLa cells [2]; 12 h): weak but enhanced emission
- I/Io BSA (unmodified BSA): 1.1
- Amount of ruthenium associated with an average HeLa cell (HeLa cells [3]): 0.31 ± 0.01 fmol
